Measurements from patent US20240409543A1, “PYRROLOPYRAZOLE SPIRO COMPOUND” (CHIA TAI TIANQING PHARMACEUTICAL GROUP CO., LTD., priority 2021, published 2024).

What was measured:
Format in all cases: cell-based
[1] = test system: H358 cells (NCIH358_LUNG); assay: Anti-proliferation experiment on tumor cells with KRAS mutations, H358 (3D CellTiter-Glo); conditions: Homo sapiens, NCI-H358, 120 h, 5 days incubation with compound, ultra-low attachment plate
Description: (§1) Cell culture medium, penicillin/streptomycin antibiotics purchased from Wisent, and fetal bovine serum purchased from Biosera; 3D CellTiter-Glo (chemiluminescence detection reagent for cell viability) reagent purchased from Promega; Cell lines purchased from Nanjing Cobioer Biosciences Co., Ltd. and Wuhan Procell Life Science & Technology Co., Ltd; and Envision multimode microplate reader (PerkinElmer).
(§2) Different types of tumor cells were each seeded in an ultra-low attachment 96-well U-bottom plate, with 80 μL of cell suspension per well. The cell plate was incubated in a CO2 incubator overnight.
(§3) Each test compound was diluted in a 5-fold gradient to the 9th concentration (i.e., from 2 mM to 5.12 nM or from 200 μM to 0.512 nM) using a multi-channel pipette, with duplicate wells set up. 78 μL of medium was added to an intermediate plate, and the serially diluted compound was transferred to the corresponding wells of the intermediate plate at 2 μL/well. The mixture was mixed well and then transferred to the cell plate at 20 µL/well. The concentration of the compound transferred to the cell plate ranged from 10 μM to 0.0256 nM or from 1 μM to 0.00256 nM. The cell plate was then incubated in a CO2 incubator for 3-6 days.
(§4) The chemiluminescence detection reagent for cell viability was added to the cell plate at 100 μL/well, and the luminescence signals were stabilized by incubation for 10 min at room temperature. Readings were taken using the multimode microplate reader.
(§5) The original data were converted to inhibition rates and then the IC50 values were obtained by curve fitting using a four-parameter method (obtained from the “log(inhibitor) vs. response—Variable slope” model in GraphPad Prism). Table 2 illustrates the inhibitory activity of the compounds disclosed herein against the proliferation of different types of tumor cells.

[2] = test system: MiaPaCa-2 cells (MIAPACA2_PANCREAS); assay: Anti-proliferation experiment on tumor cells with KRAS mutations, MiaPaCa-2 (3D CellTiter-Glo); conditions: Homo sapiens, MIA PaCa-2, 72 h, 3 days incubation with compound, ultra-low attachment plate
Description: as §1, §2, §3, §4, §5

[3] = test system: ERK phosphorylation in H358 cells; assay: Inhibitory activity against ERK phosphorylation in H358 cells (HTRF Phospho-ERK1/2 kit); conditions: Homo sapiens, NCI-H358; starved H358 cells, 1 h compound incubation; read-out: H358 cell ERK phosphorylation IC50
Procedure: H358 cells purchased from Nanjing Cobioer Biosciences Co., Ltd., 1640 medium purchased from Biological industries, fetal bovine serum purchased from Biosera, and Advanced Phospho-ERK1/2 (THR202/TYR204) KIT purchased from Cisbio.
• 1. H358 cells were plated in a transparent 96-well cell culture plate, with 80 μL of cell suspension per well, each well containing 10000 H358 cells. The cell plate was incubated in a CO2 incubator at 37° C. overnight. • 2. The cell supernatant was discarded, and a starvation medium (1640+0.02% fetal bovine serum+1% […]) was added at 80 μL/well. The cell plate was then incubated in a CO2 incubator for cell starvation treatment overnight; • 3. Each test compound was diluted with 100% DMSO to 4 mM as the first concentration, and then diluted in a 5-fold gradient to the 8th concentration (i.e., from 4 mM to […]) using a pipette. 1 μL of the compound was then added to 79 μL of cell starvation medium. The mixture was mixed well, and then the compound solution was added to the corresponding wells of the cell plate at 20 μL/well. The cell plate was then put back to the CO2 incubator for incubation for another 1 h. At that time, the concentration of the compound ranged from 10 μM to 0.0256 nM, with the concentration of DMSO being 0.25%. • 4. After the incubation was completed, the cell supernatant was discarded, and a cell lysis buffer was added at 50 μL/well. The plate was then incubated with shaking at room temperature for 30 min. 5. The Phospho-ERK1/2 Eu Cryptate antibody and Phospho-ERK1/2 d2 antibody were diluted in a 20-fold gradient with the Detection buffer. • 6. 16 μL of the cell lysate supernatant from each well was transferred to a new 384-well white microplate, and then 2 μL of the Phospho-ERK1/2 Eu Cryptate antibody dilution and 2 μL of the Phospho-ERK1/2 d2 antibody dilution were added to each well. The mixture was incubated at room temperature for 4 h. • 7. After the incubation was completed, HTRF values were read using a multimode microplate reader, with an excitation wavelength of 320 nm and emission wavelengths of 615 nm and 665 nm.
The original data were converted to inhibition rates and then the IC50 values were obtained by curve fitting using a four-parameter method.

Row | IC50 [1] [nM] | IC50 [2] [nM] | IC50 [3] [nM] | SMILES
1 | 120 | 62.1 | 57.1 | Cc1nc(N2CCC3(CC2)Cn2nccc2C3N)c(CO)nc1Sc1ccnc(N)c1F (stereo not drawn) [Compound 6]
2 | 61.4 | 24.4 | 84.1 | CNc1nccc(Sc2nc(CO)c(N3CCC4(CC3)Cn3nccc3C4N)nc2C)c1Cl (stereo not drawn) [Compound 2]
3 | 22.1 | 22.6 | 21.2 | Cc1nc(N2CCC3(CC2)Cn2nccc2C3N)c(CO)nc1Sc1ccnc(N)c1Cl (stereo not drawn) [Compound 1]
4 | 145 | 56.9 | 75.8 | Cc1nc(N2CCC3(CC2)Cn2nccc2C3N)c(CO)nc1Sc1cccnc1C(F)(F)F (stereo not drawn) [Compound 4]
